Laboratory results published in the supplement of paper PMC10331698.
± gives the standard deviation of the averaged measurements.

Assays:
Assay in all cases: level (log10 ratio to DMSO vehicle control); higher = higher biomarker level / cell amount than vehicle control
Conditions in all cases: in DMSO
[1] = compound: C=C(C)C(=O)OCCC(F)(F)C(F)(F)C(F)(F)C(F)(F)C(F)(C(F)(F)F)C(F)(F)F [(Perfluoro-5-methylhexyl)ethyl 2-methylprop-2-enoate]
Procedure: (§1)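 BioMAP Diversity Plus panel of 12 human primary cell co-culture systems (3C, 4H, LPS, SAg, BT, BF4T, BE3C, CASM3C, HDF3CGF, KF3CT, MyoF, Mphg). Compounds were added 1 h before stimulation and left for 24 h (MyoF 48 h; BT 72 h for soluble read-outs or 6 d for IgG). Biomarkers were read by ELISA, cytotoxicity by SRB, PBMC viability and proliferation by Alamar Blue. Each well value was divided by the mean of 8 DMSO control wells on the same plate and log10 transformed; duplicate blinded samples were tested at 4 concentrations.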

Heptafluorobutyramide = compound: NC(=O)C(F)(F)C(F)(F)C(F)(F)F [Heptafluorobutyramide]
Procedure: as §1

Pentafluoropropionamide = compound: NC(=O)C(F)(F)C(F)(F)F [Pentafluoropropionamide]
Procedure: as §1

Perfluorodecanoic acid = compound: O=C(O)C(F)(F)C(F)(F)C(F)(F)C(F)(F)C(F)(F)C(F)(F)C(F)(F)C(F)(F)C(F)(F)F [Perfluorodecanoic acid]
Procedure: as §1

[2] = compound: O=C(O)C(F)(F)C(F)(F)C(F)(F)OC(F)(C(F)(F)F)C(F)(F)F [Perfluoro-4-isopropoxybutanoic acid]
Procedure: as §1

[3] = compound: O=C(O)C(F)(F)C(F)(F)OC(F)(F)F [Perfluoro-3-methoxypropanoic acid]
Procedure: as §1

Row | Test System | level (log10) ([1]; 6700 nM) | level (log10) ([1]; 20000 nM) | level (log10) (Heptafluorobutyramide; 6700 nM) | level (log10) (Heptafluorobutyramide; 20000 nM) | level (log10) (Heptafluorobutyramide; 60000 nM) | level (log10) (Pentafluoropropionamide; 6700 nM) | level (log10) (Pentafluoropropionamide; 20000 nM) | level (log10) (Pentafluoropropionamide; 60000 nM) | level (log10) (Perfluorodecanoic acid; 6700 nM) | level (log10) (Perfluorodecanoic acid; 20000 nM) | level (log10) ([2]; 6700 nM) | level (log10) ([2]; 20000 nM) | level (log10) ([2]; 60000 nM) | level (log10) ([3]; 6700 nM) | level (log10) ([3]; 20000 nM) | level (log10) ([3]; 60000 nM)
1 | 3C:CD62E/E-Selectin | -0.0095 ± 0.018 | -0.0175 ± 0.0021 | -0.0085 ± 0.03 | -0.017 ± 0.038 | -0.0385 ± 0.0064 | -0.0075 ± 0.0078 | -0.005 ± 0.011 | 0.005 ± 0.018 | -0.004 ± 0.0085 | 0.0025 ± 0.019 | -0.007 ± 0.023 | -0.015 ± 0.03 | 0.023 ± 0.0099 | 0.0015 ± 0.016 | -0.0155 ± 0.016 | 0.0005 ± 0.0078
2 | MyoF:Decorin | -0.006 ± 0.037 | 0.008 ± 0.052 | -0.029 ± 0.057 | 0.02 ± 0.081 | 0.0065 ± 0.049 | 0.01 ± 0.017 | 0.0135 ± 0.00071 | 0.0325 ± 0.028 | 0.0055 ± 0.0064 | -0.071 ± 0.018 | 0.008 ± 0.0057 | 0.023 ± 0.027 | 0.065 ± 0.061 | 0.005 ± 0.017 | 0.0085 ± 0.0078 | 0.0085 ± 0.03
3 | KF3CT:SRB | -0.006 ± 0.0014 | 0.003 ± 0.016 | -0.0055 ± 0.0035 | 0.0025 ± 0.0078 | -0.001 ± 0.011 | -0.006 ± 0.0014 | -0.0025 ± 0.0035 | -0.007 ± 0.023 | -0.0325 ± 0.005 | -0.036 ± 0.0085 | -0.009 ± 0.0071 | -0.013 ± 0.0028 | -0.007 ± 0.0071 | -0.0145 ± 0.0035 | -0.009 ± 0.0014 | -0.002 ± 0.013
4 | KF3CT:IL-1alpha | -0.014 ± 0.0028 | -0.0225 ± 0.0035 | -0.0035 ± 0.0064 | 0.013 ± 0.0057 | -0.0005 ± 0.032 | -0.0165 ± 0.005 | -0.034 ± 0.0085 | -0.0105 ± 0.044 | -0.0535 ± 0.0035 | -0.068 ± 0.0042 | 0.0225 ± 0.019 | 0.0165 ± 0.0035 | 0.014 ± 0.025 | 0.0455 ± 0.005 | 0.01 ± 0.0042 | 0.0225 ± 0.00071
5 | lMphg:CD40 | 0.0035 ± 0.011 | -0.0085 ± 0.0078 | -0.021 ± 0.011 | -0.0185 ± 0.037 | -0.0025 ± 0.025 | -0.0235 ± 0.022 | -0.017 ± 0.011 | -0.0115 ± 0.013 | -0.0025 ± 0.039 | -0.0385 ± 0.05 | -0.012 ± 0.013 | -0.041 ± 0.034 | -0.027 ± 0.035 | -0.0295 ± 0.03 | -0.0165 ± 0.0021 | -0.0225 ± 0.04
6 | HDF3CGF:CD106/VCAM-1 | 0.02 ± 0.023 | -0.0275 ± 0.011 | 0.0035 ± 0.0092 | -0.012 ± 0.018 | -0.0345 ± 0.054 | -0.0335 ± 0.022 | -0.0305 ± 0.025 | -0.0225 ± 0.044 | -0.0085 ± 0.026 | -0.623 ± 0.057 | -0.027 ± 0.062 | -0.0545 ± 0.067 | -0.0545 ± 0.00071 | -0.008 ± 0.02 | 0.0165 ± 0.052 | -0.0005 ± 0.036
7 | lMphg:IL-1alpha | 0.016 ± 0.018 | 0.0385 ± 0.026 | -0.034 ± 0.021 | -0.0015 ± 0.018 | 0.0475 ± 0.053 | -0.0005 ± 0.016 | -0.0055 ± 0.0092 | 0.0355 ± 0.083 | 0.0085 ± 0.0078 | 0.013 ± 0.02 | -0.005 ± 0.0057 | 0.0045 ± 0.005 | 0.009 ± 0.028 | -0.008 ± 0.03 | -0.0055 ± 0.033 | 0.0115 ± 0.005
8 | BE3C:MMP-9 | 0.0245 ± 0.039 | 0.022 ± 0.044 | -0.0135 ± 0.021 | 0.005 ± 0.0071 | 0.0005 ± 0.012 | -0.002 ± 0.011 | -0.02 ± 0.031 | 0.004 ± 0.017 | 0.008 ± 0.014 | -0.458 ± 0.0028 | 0.0235 ± 0.033 | 0.0185 ± 0.044 | 0.0645 ± 0.067 | 0.009 ± 0.021 | -0.002 ± 0.028 | 0.0285 ± 0.0078
